Activity calls are given as the source filed them. The calls are words filed in the database; no cut-off is given here.
How the values were obtained:
Lactobacillus iners = test: Microbicidal activity against Lactobacillus iners after 30 mins; assay type: functional
Lactobacillus crispatus [1] = test: Microbicidal activity against Lactobacillus crispatus after 30 mins; assay type: functional; conditions: 0.5 h
Lactobacillus jensenii [2] = test: Microbicidal activity against Lactobacillus jensenii after 30 mins; assay type: functional; conditions: 0.5 h
Neisseria gonorrhoeae [3] = test: Microbicidal activity against Neisseria gonorrhoeae ATCC 49226 after 30 mins; assay type: functional; conditions: ATCC 49226, 0.5 h
Neisseria gonorrhoeae [4] = test: Microbicidal activity against Neisseria gonorrhoeae ATCC 19424 after 30 mins; assay type: functional; conditions: ATCC 19424, 0.5 h
Lactobacillus crispatus [5] = test: Antimicrobial activity against Lactobacillus crispatus ATCC 20225 at 4.4 mM in presence of 0.05 mM human serum albumin; assay type: functional
Lactobacillus crispatus [6] = test: Antimicrobial activity against Lactobacillus crispatus ATCC 20225 at 4.4 mM in presence of 0.6 mM human serum albumin; assay type: functional
Pseudomonas aeruginosa [7] = test: Antimicrobial activity against Pseudomonas aeruginosa at 4.4 mM in presence of 0.4 mM delipidated human serum albumin; assay type: functional, organism-based
Lactobacillus crispatus [8] = test: Antimicrobial activity against Lactobacillus crispatus ATCC 20225 at 4.4 mM in presence of 0.4 mM human serum albumin; assay type: functional
Neisseria gonorrhoeae [9] = test: Antimicrobial activity against Neisseria gonorrhoeae ATCC 49226 at 4.4 mM in presence of 0.5 mM human serum albumin; assay type: functional, organism-based
Streptococcus agalactiae [10] = test: Microbicidal activity against Streptococcus agalactiae serotype 1A after 30 mins; assay type: functional; conditions: serotype IA, 0.5 h
[Haemophilus] ducreyi = Microbicidal activity against Haemophilus ducreyi after 30 mins; assay type: functional; conditions: 0.5 h
Lactobacillus crispatus [11] = test: Antimicrobial activity against Lactobacillus crispatus ATCC 20225 at 4.4 mM in presence of 0.5 mM human serum albumin; assay type: functional
Lactobacillus crispatus [12] = test: Antimicrobial activity against Lactobacillus crispatus ATCC 33197 at 4.4 mM in presence of 0.1 mM human serum albumin; assay type: functional
Lactobacillus crispatus [13] = test: Antimicrobial activity against Lactobacillus crispatus ATCC 20225 at 4.4 mM in presence of 0.1 mM human serum albumin; assay type: functional
Neisseria gonorrhoeae [14] = test: Antimicrobial activity against Neisseria gonorrhoeae ATCC 49226 at 4.4 mM in presence of 0.05 mM human serum albumin; assay type: functional, organism-based
Pseudomonas aeruginosa [15] = test: Antimicrobial activity against Pseudomonas aeruginosa at 4.4 mM in presence of 0.5 mM delipidated human serum albumin; assay type: functional, organism-based
Pseudomonas aeruginosa [16] = test: Antimicrobial activity against Pseudomonas aeruginosa at 4.4 mM in presence of 0.5 mM human serum albumin; assay type: functional, organism-based
Lactobacillus jensenii [17] = test: Antimicrobial activity against Lactobacillus jensenii ATCC 25258 at 4.4 mM in presence of 0.7 mM human serum albumin; assay type: functional
Pseudomonas aeruginosa [18] = test: Antimicrobial activity against Pseudomonas aeruginosa at 4.4 mM in presence of 0.6 mM delipidated human serum albumin; assay type: functional, organism-based
Pseudomonas aeruginosa [19] = test: Antimicrobial activity against Pseudomonas aeruginosa at 4.4 mM in presence of 0.3 mM delipidated human serum albumin; assay type: functional, organism-based
Streptococcus agalactiae [20] = test: Microbicidal activity against Streptococcus agalactiae serotype 1B after 30 mins; assay type: functional; conditions: 0.5 h
Pseudomonas aeruginosa [21] = test: Antimicrobial activity against Pseudomonas aeruginosa at 4.4 mM in presence of 0.1 mM human serum albumin; assay type: functional, organism-based
Lactobacillus crispatus [22] = test: Antimicrobial activity against Lactobacillus crispatus ATCC 33197 at 4.4 mM in presence of 0.6 mM human serum albumin; assay type: functional
Lactobacillus jensenii [23] = test: Antimicrobial activity against Lactobacillus jensenii ATCC 25258 at 4.4 mM in presence of 0.1 mM human serum albumin; assay type: functional
Neisseria gonorrhoeae [24] = test: Antimicrobial activity against Neisseria gonorrhoeae ATCC 49226 at 4.4 mM in presence of 0.3 mM human serum albumin; assay type: functional, organism-based
Lactobacillus crispatus [25] = test: Antimicrobial activity against Lactobacillus crispatus ATCC 20225 at 4.4 mM in presence of 0.2 mM human serum albumin; assay type: functional
Lactobacillus crispatus [26] = test: Antimicrobial activity against Lactobacillus crispatus ATCC 33197 at 4.4 mM in presence of 0.7 mM human serum albumin; assay type: functional
Lactobacillus crispatus [27] = test: Antimicrobial activity against Lactobacillus crispatus ATCC 33197 at 4.4 mM in presence of 0.5 mM human serum albumin; assay type: functional
Lactobacillus crispatus [28] = test: Antimicrobial activity against Lactobacillus crispatus ATCC 33197 at 4.4 mM in presence of 0.05 mM human serum albumin; assay type: functional
Neisseria gonorrhoeae [29] = test: Antimicrobial activity against Neisseria gonorrhoeae ATCC 49226 at 4.4 mM in presence of 0.1 mM human serum albumin; assay type: functional, organism-based
Lactobacillus crispatus [30] = test: Antimicrobial activity against Lactobacillus crispatus ATCC 20225 at 4.4 mM in presence of 0.7 mM human serum albumin; assay type: functional
Streptococcus agalactiae [31] = test: Microbicidal activity against Streptococcus agalactiae serotype IV after 30 mins; assay type: functional; conditions: 0.5 h
Pseudomonas aeruginosa [32] = test: Antimicrobial activity against Pseudomonas aeruginosa at 4.4 mM in presence of 0.4 mM human serum albumin; assay type: functional, organism-based
Lactobacillus jensenii [33] = test: Antimicrobial activity against Lactobacillus jensenii ATCC 25258 at 4.4 mM in presence of 0.05 mM human serum albumin; assay type: functional
Lactobacillus jensenii [34] = test: Antimicrobial activity against Lactobacillus jensenii ATCC 25258 at 4.4 mM in presence of 0.3 mM human serum albumin; assay type: functional
Lactobacillus crispatus [35] = test: Antimicrobial activity against Lactobacillus crispatus ATCC 33197 at 4.4 mM in presence of 0.4 mM human serum albumin; assay type: functional
Neisseria gonorrhoeae [36] = test: Antimicrobial activity against Neisseria gonorrhoeae ATCC 49226 at 4.4 mM in presence of 0.2 mM human serum albumin; assay type: functional, organism-based
Pseudomonas aeruginosa [37] = test: Antimicrobial activity against Pseudomonas aeruginosa at 4.4 mM in presence of 0.3 mM human serum albumin; assay type: functional, organism-based
Pseudomonas aeruginosa [38] = test: Antimicrobial activity against Pseudomonas aeruginosa at 4.4 mM in presence of 0.1 mM delipidated human serum albumin; assay type: functional, organism-based
Lactobacillus jensenii [39] = test: Antimicrobial activity against Lactobacillus jensenii ATCC 25258 at 4.4 mM in presence of 0.2 mM human serum albumin; assay type: functional
Lactobacillus crispatus [40] = test: Antimicrobial activity against Lactobacillus crispatus ATCC 33197 at 4.4 mM in presence of 0.3 mM human serum albumin; assay type: functional
Pseudomonas aeruginosa [41] = test: Antimicrobial activity against Pseudomonas aeruginosa at 4.4 mM in presence of 0.2 mM human serum albumin; assay type: functional, organism-based
Lactobacillus vaginalis = test: Microbicidal activity against Lactobacillus vaginalis after 30 mins; assay type: functional
Streptococcus agalactiae [42] = test: Microbicidal activity against Streptococcus agalactiae serotype V after 30 mins; assay type: functional; conditions: 0.5 h
Streptococcus agalactiae [43] = test: Microbicidal activity against Streptococcus agalactiae serotype III after 30 mins; assay type: functional; conditions: 0.5 h
Pseudomonas aeruginosa [44] = test: Antimicrobial activity against Pseudomonas aeruginosa at 4.4 mM in presence of 0.6 mM human serum albumin; assay type: functional, organism-based
Neisseria gonorrhoeae [45] = test: Antimicrobial activity against Neisseria gonorrhoeae ATCC 49226 at 4.4 mM in presence of 0.7 mM human serum albumin; assay type: functional, organism-based
Lactobacillus crispatus [46] = test: Antimicrobial activity against Lactobacillus crispatus ATCC 33197 at 4.4 mM in presence of 0.2 mM human serum albumin; assay type: functional
Neisseria gonorrhoeae [47] = test: Antimicrobial activity against Neisseria gonorrhoeae ATCC 49226 at 4.4 mM in presence of 0.4 mM human serum albumin; assay type: functional, organism-based
Neisseria gonorrhoeae [48] = test: Antimicrobial activity against Neisseria gonorrhoeae ATCC 49226 at 4.4 mM in presence of 0.6 mM human serum albumin; assay type: functional, organism-based
Lactobacillus jensenii [49] = test: Antimicrobial activity against Lactobacillus jensenii ATCC 25258 at 4.4 mM in presence of 0.5 mM human serum albumin; assay type: functional
Lactobacillus crispatus [50] = test: Antimicrobial activity against Lactobacillus crispatus ATCC 20225 at 4.4 mM in presence of 0.3 mM human serum albumin; assay type: functional
Streptococcus agalactiae [51] = test: Microbicidal activity against Streptococcus agalactiae serotype II after 30 mins; assay type: functional; conditions: 0.5 h
Lactobacillus jensenii [52] = test: Antimicrobial activity against Lactobacillus jensenii ATCC 25258 at 4.4 mM in presence of 0.4 mM human serum albumin; assay type: functional
Lactobacillus jensenii [53] = test: Antimicrobial activity against Lactobacillus jensenii ATCC 25258 at 4.4 mM in presence of 0.6 mM human serum albumin; assay type: functional
Pseudomonas aeruginosa [54] = test: Antimicrobial activity against Pseudomonas aeruginosa at 4.4 mM in presence of 0.2 mM delipidated human serum albumin; assay type: functional, organism-based

Compound `CCCCCCCCOC[C@@H](O)CO` has an MCC (Lactobacillus iners) of 4 mM, an MCC (Lactobacillus crispatus [1]) of 5 mM and an MCC (Lactobacillus jensenii [2]) of 3 mM. For the same compound, the MCC (Neisseria gonorrhoeae [3]) was 2.5 mM and the MCC (Neisseria gonorrhoeae [4]) was 2.5 mM.

In the case of `CCCCCCCCOC[C@H](O)CO`, the Activity (Lactobacillus crispatus [5]) is reported as “Active”, the Activity (Lactobacillus crispatus [6]) is reported as “inactive” and the Activity (Pseudomonas aeruginosa [7]) is reported as “inactive”. For the same compound, the Activity (Lactobacillus crispatus [8]) was “inactive”, the Activity (Neisseria gonorrhoeae [9]) was “Active” and the MCC (Streptococcus agalactiae [10]) was 5 mM. For the same compound, the MCC ([Haemophilus] ducreyi) was 1.25 mM, the Activity (Lactobacillus crispatus [11]) was “inactive” and the Activity (Lactobacillus crispatus [12]) was “Active”. The Activity (Lactobacillus crispatus [13]) was “Active”, the Activity (Neisseria gonorrhoeae [14]) was “Active” and the Activity (Pseudomonas aeruginosa [15]) was “inactive”. The Activity (Pseudomonas aeruginosa [16]) was “inactive”, the Activity (Lactobacillus jensenii [17]) was “inactive” and the Activity (Pseudomonas aeruginosa [18]) was “inactive”. For the same compound, the Activity (Pseudomonas aeruginosa [19]) was “inactive”, the MCC (Lactobacillus iners) was 5 mM and the MCC (Streptococcus agalactiae [20]) was 5 mM. The Activity (Pseudomonas aeruginosa [21]) was “Active”, the MCC (Lactobacillus crispatus [1]) was 5 mM and the Activity (Lactobacillus crispatus [22]) was “inactive”. The Activity (Lactobacillus jensenii [23]) was “Active”, the Activity (Neisseria gonorrhoeae [24]) was “Active” and the Activity (Lactobacillus crispatus [25]) was “Active”. The Activity (Lactobacillus crispatus [26]) was “inactive”, the Activity (Lactobacillus crispatus [27]) was “inactive” and the Activity (Lactobacillus crispatus [28]) was “Active”. The Activity (Neisseria gonorrhoeae [29]) was “Active”, the Activity (Lactobacillus crispatus [30]) was “inactive” and the MCC (Streptococcus agalactiae [31]) was 5 mM. For the same compound, the Activity (Pseudomonas aeruginosa [32]) was “Active”, the Activity (Lactobacillus jensenii [33]) was “Active” and the MCC (Lactobacillus jensenii [2]) was 5 mM. For the same compound, the Activity (Lactobacillus jensenii [34]) was “Active”, the Activity (Lactobacillus crispatus [35]) was “inactive” and the Activity (Neisseria gonorrhoeae [36]) was “Active”. For the same compound, the Activity (Pseudomonas aeruginosa [37]) was “Active”, the MCC (Neisseria gonorrhoeae [3]) was 2.5 mM and the Activity (Pseudomonas aeruginosa [38]) was “Active”. The Activity (Lactobacillus jensenii [39]) was “Active”, the Activity (Lactobacillus crispatus [40]) was “inactive” and the Activity (Pseudomonas aeruginosa [41]) was “Active”. For the same compound, the MCC (Lactobacillus vaginalis) was > 10 mM, the MCC (Streptococcus agalactiae [42]) was 5 mM and the MCC (Streptococcus agalactiae [43]) was 5 mM. For the same compound, the Activity (Pseudomonas aeruginosa [44]) was “inactive”, the Activity (Neisseria gonorrhoeae [45]) was “inactive” and the Activity (Lactobacillus crispatus [46]) was “Active”. The Activity (Neisseria gonorrhoeae [47]) was “Active”, the Activity (Neisseria gonorrhoeae [48]) was “Active” and the Activity (Lactobacillus jensenii [49]) was “inactive”. For the same compound, the Activity (Lactobacillus crispatus [50]) was “inactive”, the MCC (Streptococcus agalactiae [51]) was 5 mM and the Activity (Lactobacillus jensenii [52]) was “inactive”. The Activity (Lactobacillus jensenii [53]) was “inactive”, the Activity (Pseudomonas aeruginosa [54]) was “inactive” and the MCC (Neisseria gonorrhoeae [4]) was 2.5 mM.

From ChEMBL document CHEMBL1255299, “Killing of Neisseria gonorrhoeae, Streptococcus agalactiae (group B streptococcus), Haemophilus ducreyi, and vaginal Lactobacillus by 3-O-octyl-sn-glycerol” (2008)
